Measurements as given in patent EP0062704A1, “Cyclopropanecarboxylic-acid ester as an agent in the fight against larves of the Gasterophilidae family in Equidae” (HOECHST AKTIENGESELLSCHAFT, priority 1980, dated 1982).
Marks after values point to notes of the source that are not given here.

What was measured:
[1] = system: Larven III der Magenbremse, Gasterophilus intestinalis; assay: In vitro test on larvae III of Gasterophilus intestinalis (5 min immersion, mortality count); conditions: 10 larvae immersed 5 min in 0,1 % active dilution, kept at about 37°C
From the text: Beispiel 2 : In vitro Test an Larven von Gasterophilus intestinalis
Die Verbindungen (S)-a-Cyan-3-phenoxybenzyl(1R)-cis-3-(2,2-dibromvinyl)-2,2-dimethylcyclopropancarboxylat, nachfolgend bezeichnet als Verbindung A, (S)-a-Cyan-3-phenoxybenzyl (1R)-cis-3-(2,2-dichlorvinyl)-2,2-dimethylcyclopropancarboxylat, nachfolgend bezeichnet als Verbindung B, (S)-o-Cyan-3-phenoxybenzyl(1R)-cis-3-(2', 2'-dichlor-1',2'-dibromäthyl)-2,2-dimethylcyclopropancarboxylat, nachfolgend bezeichnet als Verbindung C, werden in Zubereitungen nach Beispiel 1 a) so in Wasser verdünnt, daß die Verdünnungen 0,1 % der Wirkstoffe enthalten. Zum Vergleich wird Dimethyl-2,2,2-trichloro-1-hydroxyäthyl-phosphonat (Trichlorfon) in derselben Verdünnung verwendet.
Larven III der Magenbremse, Gasterophilus intestinalis, werden aus dem Magen eines geschlachteten Pferdes entnommen. Jeweils zehn Larven werden in Bechergläsern in die Verdünnungen für 5 Minuten eingetaucht. Zur Kontrolle werden 10 Larven in Wasser eingetaucht. Danach werden die Larven auf Filterpapier getrocknet und in Behälter aus Styropor verbracht, die unter einer Wärmelampe bei etwa 37°C aufbewahrt werden. Nach 1, 6, 24, 48, 72, 96 und 120 Stunden werden alle Larven untersucht und deren Mortalität protokolliert.

Gasterophilus nasalis = assay: In vivo test in horses infested with stomach bots: G. nasalis; conditions: 10 mg/kg by nasogastric tube; for %-Wirksamkeit: expelled and dead larvae as percent of all larvae present, horse; for noch im Magen festgeheftet: larvae at necropsy on day 7, horse; for Zahl der Larven im Kot Total: total of days 1-7, horse
Protocol: (§1) Beispiel 3: In vivo-Prüfung an Pferden mit Magendasselbefall
(§2) Zwei Pferde mit Körpergewichten von 190 kg und 142 kg werden mit den Verbindungen A bzw. C aus Beispiel II behandelt. Die Dosis beträgt 10 mg/kg Körpergewicht. Die sich aus der Dosis und der Konzentration der Arzneizubereitung nach Beispiel 2 zu errechnende Menge der Zubereitung wird im Volumenverhältnis 1 : 1 mit Wasser verdünnt und den Pferden mittels Nasenschlundsonde verabreicht.
(§3) Nach der Behandlung werden die Pferde in Einzelboxen aufgestellt. […] Vorhandene Dassellarven werden gezählt und ihre Artzugehörigkeit bestimmt. Am siebten Tag nach der Behandlung werden die Pferde getötet und der Magen-Darmtrakt auf das Vorhandensein noch angehefteter und toter Dassellarven untersucht.
(§4) Die Zahl der abgegangenen und toten Larven wird auf die Gesamtzahl vorhandener Larven prozentual bezogen und ihr Prozentsatz als "% Wirksamkeit" bezeichnet. Somit besagen 100 %, daß alle und 0 %, daß keine Larven abgetötet und abgetrieben werden.

[2] = system: Gasterophilus intestinalis; assay: In vivo test in horses infested with stomach bots: G. intestinalis; conditions: 10 mg/kg by nasogastric tube; for %-Wirksamkeit: expelled and dead larvae as percent of all larvae present, horse; for noch im Magen festgeheftet: larvae at necropsy on day 7, horse; for Zahl der Larven im Kot Total: total of days 1-7, horse
Protocol: as §1, §2, §3, §4

Structure (SMILES) | Zahl toter Larven Stunden nach Behandlung ([1]; 1 h after treatment) | Zahl toter Larven Stunden nach Behandlung ([1]; 6 h after treatment) | Zahl toter Larven Stunden nach Behandlung ([1]; 24 h after treatment) | Zahl toter Larven Stunden nach Behandlung ([1]; 48 h after treatment) | Zahl toter Larven Stunden nach Behandlung ([1]; 72 h after treatment) | Zahl toter Larven Stunden nach Behandlung ([1]; 96 h after treatment) | Zahl toter Larven Stunden nach Behandlung ([1]; 120 h after treatment) | Zahl der Larven im Kot an den Tagen nach der Behandlung (Gasterophilus nasalis; day 1, horse) | Zahl der Larven im Kot an den Tagen nach der Behandlung (Gasterophilus nasalis; day 2, horse) | Zahl der Larven im Kot an den Tagen nach der Behandlung (Gasterophilus nasalis; day 3, horse) | Zahl der Larven im Kot an den Tagen nach der Behandlung (Gasterophilus nasalis; day 4, horse) | Zahl der Larven im Kot an den Tagen nach der Behandlung (Gasterophilus nasalis; day 5, horse) | Zahl der Larven im Kot an den Tagen nach der Behandlung (Gasterophilus nasalis; day 6, horse) | Zahl der Larven im Kot an den Tagen nach der Behandlung (Gasterophilus nasalis; day 7, horse) | %-Wirksamkeit (Gasterophilus nasalis) [%] | noch im Magen festgeheftet (Gasterophilus nasalis) | Zahl der Larven im Kot Total (Gasterophilus nasalis) | Zahl der Larven im Kot an den Tagen nach der Behandlung ([2]; day 1, horse) | Zahl der Larven im Kot an den Tagen nach der Behandlung ([2]; day 2, horse) | Zahl der Larven im Kot an den Tagen nach der Behandlung ([2]; day 3, horse) | other results
COP(=O)(OC)C(O)C(Cl)(Cl)Cl (centres unmarked) [Trichlorfon, Dimethyl-2,2,2-trichloro-1-hydroxyäthyl-phosphonat, reference compound] | 6* | 7* | 4* | 5* | 9* | 6* | 6* | – | – | – | – | – | – | – | – | – | – | – | – | – | –
CC1(C)[C@H](C(=O)O[C@H](C#N)c2cccc(Oc3ccccc3)c2)[C@@H]1C=C(Br)Br [Verbindung A, (S)-a-Cyan-3-phenoxybenzyl(1R)-cis-3-(2,2-dibromvinyl)-2,2-dimethylcyclopropancarboxylat] | 10 | 10 | 10 | 10 | 10 | 10 | 10 | 1 | 4 | 1 | 0 | 0 | 0 | 0 | 100 | 0 | 6 | 2 | 16 | 18 | Zahl der Larven im Kot an den Tagen nach der Behandlung ([2]; day 4, horse): 5; Zahl der Larven im Kot an den Tagen nach der Behandlung ([2]; day 5, horse): 0; Zahl der Larven im Kot an den Tagen nach der Behandlung ([2]; day 6, horse): 0; Zahl der Larven im Kot an den Tagen nach der Behandlung ([2]; day 7, horse): 0; %-Wirksamkeit [2]: 93%; noch im Magen festgeheftet [2]: 3; Zahl der Larven im Kot Total [2]: 41
CC1(C)[C@H](C(=O)O[C@H](C#N)c2cccc(Oc3ccccc3)c2)[C@@H]1C=C(Cl)Cl [Verbindung B, (S)-a-Cyan-3-phenoxybenzyl (1R)-cis-3-(2,2-dichlorvinyl)-2,2-dimethylcyclopropancarboxylat] | 10 | 10 | 10 | 10 | 10 | 10 | 10 | – | – | – | – | – | – | – | – | – | – | – | – | – | –
CC1(C)[C@H](C(=O)O[C@H](C#N)c2cccc(Oc3ccccc3)c2)[C@@H]1C(Br)C(Cl)(Cl)Br (stereo partly drawn) [Verbindung C, (S)-o-Cyan-3-phenoxybenzyl(1R)-cis-3-(2', 2'-dichlor-1',2'-dibromäthyl)-2,2-dimethylcyclopropancarboxylat] | 4 | 10 | 10 | 10 | 10 | 10 | 10 | 0 | 3 | 7 | 1 | 0 | 0 | 0 | 100 | 0 | 11 | 1 | 2 | 8 | Zahl der Larven im Kot an den Tagen nach der Behandlung ([2]; day 4, horse): 10; Zahl der Larven im Kot an den Tagen nach der Behandlung ([2]; day 5, horse): 7; Zahl der Larven im Kot an den Tagen nach der Behandlung ([2]; day 6, horse): 2; Zahl der Larven im Kot an den Tagen nach der Behandlung ([2]; day 7, horse): 0; %-Wirksamkeit [2]: 100%; noch im Magen festgeheftet [2]: 0; Zahl der Larven im Kot Total [2]: 30
